Experiment [1] deals with PC3 cells. Briefly: NAMPT Cell Proliferation Assay (Cell Titer Glo). Type of experiment: cell-based. The following applies: Homo sapiens, PC-3, 120 h, incubated 5 days, cell viability. Here is the method: NAMPT Cell Proliferation Assay
PC3 cells were seeded in 96-well black plates (Corning #3904) at 500 cells/well in 90 µl of RPMI media containing 10% heat-inactivated FBS and incubated overnight at 37° C. and 5% CO2 to allow cells to attach to wells. The following day, test compounds were serially diluted in neat DMSO to 1000× final concentrations prior to dilution with RPMI media to 10× and 1% DMSO. Ten L of the 10× compounds were then transferred to wells containing cells to produce a dose response of 10-fold dilutions from […]. Cells were incubated for 5 days at 37° C. and 5% CO2, then cell viability was measured using Cell Titer Glo reagent (Promega #G7571). Percent inhibition values were calculated and fitted to a sigmoidal dose response curves using Assay Explorer software to determine IC50s.

The target in experiment [2] is NAMPT (Homo sapiens, UniProt P43490). The experiment is described as follows: Time-Resolved Fluorescence Resonance Energy Transfer (TR-FRET) Binding Assay of NAMPT. Conditions: 6.8 nM NAMPT, 200 nM probe, equilibrated 3 hours, no substrates. Here is the method: Determination of the utility of compounds having Formula (I) as binders to and inhibitors of NAMPT was performed using Time-Resolved Fluorescence Resonance Energy Transfer (TR-FRET) binding assays.
Time-Resolved Fluorescence Resonance Energy Transfer (TR-FRET) Binding Assay of NAMPT
Six L were transferred to 384-well low-volume plates ([…] #3673). To this, 12 L of a 1.5× solution containing enzyme, probe and antibody were added. […] Reactions were equilibrated at room temperature for 3 hours prior to reading on an Envision multi-label plate reader (Perkin Elmer; Ex=337 nm, Em=520 and 495 nm). Time-resolved FRET ratios (Em520/Em495) were normalized to controls, plotted as a function of compound concentration and fit with the four-parameter logistic equation to determine IC50s.
On the technique in general: In TR-FRET formats the signal depends on donor and acceptor labels being close together.

Chain of NAMPT (P43490 whole entry): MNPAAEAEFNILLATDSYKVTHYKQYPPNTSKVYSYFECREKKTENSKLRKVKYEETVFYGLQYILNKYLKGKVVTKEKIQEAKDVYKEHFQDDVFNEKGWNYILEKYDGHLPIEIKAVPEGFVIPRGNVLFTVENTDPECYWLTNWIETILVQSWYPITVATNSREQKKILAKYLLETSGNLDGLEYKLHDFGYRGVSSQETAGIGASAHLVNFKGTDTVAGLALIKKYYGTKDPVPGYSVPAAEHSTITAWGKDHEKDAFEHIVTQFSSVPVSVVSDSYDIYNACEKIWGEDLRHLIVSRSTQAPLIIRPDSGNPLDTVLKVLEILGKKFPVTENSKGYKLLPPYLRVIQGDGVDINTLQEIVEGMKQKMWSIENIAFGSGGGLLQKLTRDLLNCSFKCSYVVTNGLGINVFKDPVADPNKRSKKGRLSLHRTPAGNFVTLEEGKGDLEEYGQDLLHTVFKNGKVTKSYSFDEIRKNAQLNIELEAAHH

One may read the IC50 as the point on the concentration scale where inhibition reaches its midpoint. Low values mean greater potency in that assay, high ones weaker potency in that assay. Turning to `O=C(CN1CCCC1)N1CCC(c2ccc(NC(=O)N3CC(c4cccnc4)C3)cc2)C1` (centres unmarked) [Example 265, 3-(pyridin-3-yl)-N-{4-[1-(pyrrolidin-1-ylacetyl)pyrrolidin-3-yl]phenyl}azetidine-1-carboxamide], the IC50 in experiment [1] was determined as 691 nM; in experiment [2], 191 nM.
In the same order, the values of `O=C(CC1CC1)N1CCC(c2ccc(NC(=O)N3CC(c4cccnc4)C3)cc2)C1` (centres unmarked) [Example 69, N-{4-[1-(cyclopropylacetyl)pyrrolidin-3-yl]phenyl}-3-(pyridin-3-yl)azetidine-1-carboxamide] are 61.3 nM and 44.8 nM.
Take `CN(C)CCC(=O)N1CC[C@@H](Oc2ccc(NC(=O)N3CC(c4cccnc4)C3)cc2)C1` [Example 306, N-(4-{[(3R)-1-(N,N-dimethyl-beta-alanyl)pyrrolidin-3-yl]oxy}phenyl)-3-(pyridin-3-yl)azetidine-1-carboxamide]: the results for the IC50 in experiment [1] and in experiment [2] were 298 nM and 507 nM, respectively.
As for `Cn1cccc1C(=O)N1CCC(c2ccc(NC(=O)N3CC(c4cccnc4)C3)cc2)C1` (centres unmarked) [Example 285, N-(4-{1-[(1-methyl-1H-pyrrol-2-yl)carbonyl]pyrrolidin-3-yl}phenyl)-3-(pyridin-3-yl)azetidine-1-carboxamide], the IC50 came to 26.5 nM in experiment [1] and 17.2 nM in experiment [2].
In the same order, the values of `O=C(Nc1ccc(O[C@@H]2CCN(C(=O)c3ccccc3)C2)cc1)N1CC(c2cccnc2)C1` [Example 83, N-(4-{[(3R)-1-benzoylpyrrolidin-3-yl]oxy}phenyl)-3-(pyridin-3-yl)azetidine-1-carboxamide] are 6.85 nM and 7.22 nM.
On the same counts, the results for `O=C(Nc1ccc(OC2CN(C(=O)c3cscn3)C2)cc1)N1CC(c2cccnc2)C1` [Example 147, 3-(pyridin-3-yl)-N-(4-{[1-(1,3-thiazol-4-ylcarbonyl)azetidin-3-yl]oxy}phenyl)azetidine-1-carboxamide] are 5.13 nM and 16.7 nM.
On the same counts, the results for `O=C(CC(F)(F)F)N1CC[C@H](Oc2ccc(NC(=O)N3CC(c4cccnc4)C3)cc2)C1` [Example 96, 3-(pyridin-3-yl)-N-(4-{[(3S)-1-(3,3,3-trifluoropropanoyl)pyrrolidin-3-yl]oxy}phenyl)azetidine-1-carboxamide] are 171 nM and 265 nM.
`O=C(CC(F)(F)F)N1CC[C@@H](Oc2ccc(NC(=O)N3CC(c4cccnc4)C3)cc2)C1` [Example 84, 3-(pyridin-3-yl)-N-(4-{[(3R)-1-(3,3,3-trifluoropropanoyl)pyrrolidin-3-yl]oxy}phenyl)azetidine-1-carboxamide]: the IC50 turned out to be 22 nM in experiment [1] and 59.4 nM in experiment [2].
In the same order, the values of `O=C(Nc1ccc(C2CN(CC3CCCC3)C2)cc1)N1CC(c2cccnc2)C1` [Example 245, N-{4-[1-(cyclopentylmethyl)azetidin-3-yl]phenyl}-3-(pyridin-3-yl)azetidine-1-carboxamide] are 617 nM and 317 nM.
In the same order, the values of `O=C(Nc1ccc(C2CCN(C(=O)[C@@H]3CCCO3)C2)cc1)N1CC(c2cccnc2)C1` (stereo partly drawn) [Example 66, 3-(pyridin-3-yl)-N-(4-{1-[(2S)-tetrahydrofuran-2-ylcarbonyl]pyrrolidin-3-yl}phenyl)azetidine-1-carboxamide] are 82.2 nM and 86 nM.
Consider `O=C(Nc1ccc(O[C@H]2CCN(C(=O)[C@H]3CCCO3)C2)cc1)N1CC(c2cccnc2)C1` [Example 91, 3-(pyridin-3-yl)-N-[4-({(3S)-1-[(2R)-tetrahydrofuran-2-ylcarbonyl]pyrrolidin-3-yl}oxy)phenyl]azetidine-1-carboxamide], for which the results for the IC50 in experiment [1] and in experiment [2] were 111 nM and 320 nM, respectively.
On the same counts, the results for `CCCC(C)CN1CC(c2ccc(NC(=O)N3CC(c4cccnc4)C3)cc2)C1` (centres unmarked) [Example 249, N-{4-[1-(2-methylpentyl)azetidin-3-yl]phenyl}-3-(pyridin-3-yl)azetidine-1-carboxamide] are 541 nM and 193 nM.
Consider `CC(C)(C)OC(=O)N1CC[C@@H](Oc2ccc(NC(=O)N3CC(c4cccnc4)C3)cc2)C1` [Example 60, tert-butyl (3R)-3-[4-({[3-(pyridin-3-yl)azetidin-1-yl]carbonyl}amino)phenoxy]pyrrolidine-1-carboxylate], for which the IC50 in experiment [1] stood at 74.9 nM; in experiment [2], 55.4 nM.
On the same counts, the results for `CC(C)C(=O)N1CC[C@H](Oc2ccc(NC(=O)N3CC(c4cccnc4)C3)cc2)C1` [Example 89, N-(4-{[(3S)-1-(2-methylpropanoyl)pyrrolidin-3-yl]oxy}phenyl)-3-(pyridin-3-yl)azetidine-1-carboxamide] are 180 nM and 227 nM.
On the same counts, the results for `O=C(Nc1ccc(O[C@@H]2CCN(C(=O)C3CCOC3)C2)cc1)N1CC(c2cccnc2)C1` (stereo partly drawn) [Example 80, 3-(pyridin-3-yl)-N-(4-{[(3R)-1-(tetrahydrofuran-3-ylcarbonyl)pyrrolidin-3-yl]oxy}phenyl)azetidine-1-carboxamide] are 63.2 nM and 122 nM.
In the same order, the values of `CC(C)(C)C(=O)N1CC[C@@H](Oc2ccc(NC(=O)N3CC(c4cccnc4)C3)cc2)C1` [Example 322, N-(4-{[(3R)-1-(2,2-dimethylpropanoyl)pyrrolidin-3-yl]oxy}phenyl)-3-(pyridin-3-yl)azetidine-1-carboxamide] are 12.5 nM and 34.9 nM.
`O=C(Nc1ccc(O[C@H]2CCN(C(=O)C3CCOC3)C2)cc1)N1CC(c2cccnc2)C1` (stereo partly drawn) [Example 92, 3-(pyridin-3-yl)-N-(4-{[(3S)-1-(tetrahydrofuran-3-ylcarbonyl)pyrrolidin-3-yl]oxy}phenyl)azetidine-1-carboxamide]: the IC50 in experiment [1] was 608 nM; in experiment [2], 387 nM.
On the same counts, the results for `COCC(=O)N1CCC(Oc2ccc(NC(=O)N3CC(c4cccnc4)C3)cc2)CC1` [Example 48, N-(4-{[1-(methoxyacetyl)piperidin-4-yl]oxy}phenyl)-3-(pyridin-3-yl)azetidine-1-carboxamide] are 95.8 nM and 206 nM.
In the same order, the values of `O=C(CC1CC1)N1CC[C@H](Oc2ccc(NC(=O)N3CC(c4cccnc4)C3)cc2)C1` [Example 93, N-(4-{[(3S)-1-(cyclopropylacetyl)pyrrolidin-3-yl]oxy}phenyl)-3-(pyridin-3-yl)azetidine-1-carboxamide] are 87.6 nM and 138 nM.
In the same order, the values of `CC(C)Cn1cc(-c2ccc(NC(=O)N3CC(c4cccnc4)C3)cc2)cn1` [Example 157, N-{4-[1-(2-methylpropyl)-1H-pyrazol-4-yl]phenyl}-3-(pyridin-3-yl)azetidine-1-carboxamide] are 37.8 nM and 22.6 nM.
Take `O=C(Nc1ccc(O[C@@H]2CCN(C(=O)[C@H]3CCCO3)C2)cc1)N1CC(c2cccnc2)C1` [Example 79, 3-(pyridin-3-yl)-N-[4-({(3R)-1-[(2R)-tetrahydrofuran-2-ylcarbonyl]pyrrolidin-3-yl}oxy)phenyl]azetidine-1-carboxamide]: the values for the IC50 in experiment [1] and in experiment [2] were 41.4 nM and 92.9 nM, respectively.
On the same counts, the results for `CC(C)C(=O)N1CCC(c2ccc(NC(=O)N3CC(c4cccnc4)C3)cc2)CC1` [Example 56, N-{4-[1-(2-methylpropanoyl)piperidin-4-yl]phenyl}-3-(pyridin-3-yl)azetidine-1-carboxamide] are 8.83 nM and 27.4 nM.

Values taken from patent US9296723B2, “NAMPT inhibitors” (AbbVie Inc., priority 2012, dated 2016).
